Reference: patent US20230365563A1, “QUINAZOLINE COMPOUND AND APPLICATION THEREOF” (SHANGHAI PHARMACEUTICALS HOLDING CO., LTD., priority 2020, published 2023)
Structures can show the parent of a compound that is named as a salt.

Legend:
KRAS-G12D and SOS1 = target: T1, KRAS-G12D and SOS1 (Homo sapiens, UniProt P01116, G12D); experiment: Inhibition of KRAS-G12D/SOS1 binding (Cisbio binding kit, 665/615 ratio), Effect Embodiment A; details: read-out: GTP-KRAS-G12D:SOS1 IC50
T1 construct: purchased
Outline: (§1)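 Compounds are tested over eleven threefold dilution steps in duplicate, with final DMSO at 1%.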

KRAS_G12D and cRAF = target: T2, KRAS_G12D and cRAF (Homo sapiens, UniProt P01116, G12D); experiment: Inhibition of KRAS_G12D/cRAF binding (Cisbio binding kit, 665/615 ratio), Effect Embodiment B; details: read-out: GTP-KRAS-G12D:CRAF IC50
T2 construct: purchased
Outline: as §1

KRAS_WT and SOS1 = target: T3, KRAS_WT and SOS1 (Homo sapiens, UniProt P01116); experiment: Inhibition of KRAS_WT/SOS1 binding (Cisbio binding kit, 665/615 ratio), Effect Embodiment C; details: read-out: GTP-KRAS-WT:SOS1 IC50
T3 construct: purchased
Outline: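 Compounds tested as 3-fold, 11-point dilutions in duplicate at 1% DMSO final against the KRAS_WT/SOS1 binding system. IC50 derived by nonlinear regression fit.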

Row | IC50 (KRAS-G12D and SOS1) [nM] | IC50 (KRAS_G12D and cRAF) [nM] | IC50 (KRAS_WT and SOS1) [nM] | Molecule
1 | 17.9 | 19.5 | 248 | CN1CC2(CC2)C[C@H]1COc1nc(N2C[C@H]3CC[C@@H](C2)N3)c2cc(Cl)c(-c3cc(O)cc4ccccc34)c(F)c2n1 (single isomer, unassigned) [Compound 167, (R or S)-4-(4-((1R,5S)-3,8-diazabicyclo[3.2.1]octan-3-yl)-6-chloro-8-fluoro-2-(((S)-5-methyl-5-azaspiro[2.4]heptan-6-yl)methoxy)quinazolin-7-yl)naphthalen-2-ol dihydrochloride]
2 | 44.3 | 155 | 1690 | CC(C)N(C)CCCOc1nc(N2CC3CCC(C2)N3)c2cc(Cl)c(-c3cc(O)cc4ccccc34)c(F)c2n1 (single isomer, unassigned) [Compound 50a, 4-((S or R)-4-((1R,5S)-3,8-diazabicyclo[3.2.1]octan-3-yl)-6-chloro-8-fluoro-2-(3-(isopropyl(methyl)amino)propoxy)quinazolin-7-yl)naphthalen-2-ol trifluoroacetate]
3 | 40.9 | 248 | > 10000 | CN(C)C(C)(C)COc1nc(N2CC3CCC(C2)N3)c2cc(Cl)c(-c3cc(O)cc4ccccc34)c(F)c2n1 (single isomer, unassigned) [Compound 104, 4-((S or R)-4-((1R,5S)-3,8-diazabicyclo[3.2.1]octan-3-yl)-6-chloro-2-(2-(dimethylamino)-2-methylpropoxy)-8-fluoroquinazolin-7-yl)naphthalen-2-ol dihydrochloride]
4 | 48.5 | 260 | 3340 | CC(C)N1CC2CCC(C1)N2CCCOc1nc(N2CC3CCC(C2)N3)c2cc(Cl)c(-c3cc(O)cc4ccccc34)c(F)c2n1 (single isomer, unassigned) [Compound 244, 4-((7S or 7R)-4-((1R,5S)-3,8-diazacyclo[3.2.1]octan-3-yl)-6-chloro-8-fluoro-2-(3-(3-isopropyl-3,8-diazacyclo[3.2.1]octan-8-yl)propoxy)quinazolin-7-yl)naphthalen-2-ol diformate]
5 | 27.4 | 32.4 | 390 | CN1CCC[C@H]1COc1nc(N2CC3CCC(C2)N3)c2cc(F)c(-c3cc(O)cc4ccccc34)c(F)c2n1 [Compound 160, 4-(4-((1R,5S)-3,8-diazabicyclo[3.2.1]octan-3-yl)-6,8-difluoro-2-((S)-1-methylpyrrolidin-2-yl)methoxy)quinazolin-7-yl)naphthalen-2-ol dihydrochloride]
6 | 17.3 | 11 | 251 | CCc1cccc2cc(O)cc(-c3c(F)cc4c(N5CC6CCC(C5)N6)nc(OC[C@H](C)CN5C6CCC5COC6)nc4c3F)c12 (single isomer, unassigned) [Compound 284a, (4S or 4R)-4-(2-((2R)-3-(3-oxa-8-azabicyclo[3.2.1]octan-8-yl)-2-methylpropoxy)-4-((1R,5S)-3,8-diazabicyclo[3.2.1]octan-3-yl)-6,8-difluoroquinazolin-7-yl)-5-ethylnaphthalen-2-ol dihydrochloride]
7 | 15.2 | 104 | 1040 | CN(C)CCCOc1nc(N2C[C@H]3CC[C@@H](C2)N3)c2cc(Cl)c(-c3cc(O)cc4ccccc34)c(F)c2n1 (single isomer, unassigned) [Compound 40a, (S or R)-4-(4-((1R,5S)-3,8-diazabicyclo[3.2.1]octan-3-yl)-6-chloro-2-(3-(dimethylamino)propoxy)-8-fluoroquinazolin-7-yl)naphthalen-2-ol]
8 | 23.8 | 130 | 6020 | CN(C)CCOc1nc(N2CC3CCC(C2)N3)c2cc(Cl)c(-c3cc(O)cc4ccccc34)c(F)c2n1 (single isomer, unassigned) [Compound 48a, 4-((S or R)-4-((1R,5S)-3,8-diazabicyclo[3.2.1]octan-3-yl)-6-chloro-2-(2-(dimethylamino)ethoxy)-8-fluoroquinazolin-7-yl)naphthalen-2-ol]
9 | 23.1 | 118 | 863 | Oc1cc(-c2c(Cl)cc3c(N4CC5CCC(C4)N5)nc(OCCCN4CC5(CCOC5)C4)nc3c2F)c2ccccc2c1 (single isomer, unassigned) [Compound 263, 4-((S or R)-2-(3-(6-oxa-2-azaspiro[3.4]octan-2-yl)propoxy)-4-((1R,5S)-3,8-diazacyclo[3.2.1]octan-3-yl)-6-chloro-8-fluoroquinazolin-7-yl)naphthalen-2-ol formate]
10 | 60 | 134 | 5400 | Oc1cc(-c2c(Cl)cc3c(N4CC5CCC(C4)N5)nc(OCC(F)CN4C5CCC4COC5)nc3c2F)c2ccccc2c1 (single isomer, unassigned) [Compound 179b, ((4R or 4S)-4-(2-((2S or 2R)-3-(3-oxa-8-azabicyclo[3.2.1]octan-8-yl)-2-fluoropropoxy)-4-((1R,5S)-3,8-diazabicyclo[3.2.1]octan-3-yl)-6-chloro-8-fluoroquinazolin-7-yl)naphthalen-2-ol diformate]
11 | 11.6 | 13 | 505 | C[C@@H](COc1nc(N2CC3CCC(C2)N3)c2cc(Cl)c(-c3cc(O)cc4ccccc34)c(F)c2n1)CN1C[C@@H](C)O[C@@H](C)C1 (single isomer, unassigned) [Compound 205, 4-((S or R)-4-((1R,5S)-3,8-diazabicyclo[3.2.1]octan-3-yl)-6-chloro-2-((R)-3-((2S,6R)-2,6-dimethylmorpholinyl)-2-methylpropoxy)-8-fluoroquinazolin-7-yl)naphthalenol formate]
12 | 25.3 | 146 | 1470 | Oc1cc(-c2c(Cl)cc3c(N4CC5CCC(C4)N5)nc(OCCCN4CCC5(CCOCC5)C4)nc3c2F)c2ccccc2c1 (single isomer, unassigned) [Compound 259, 4-((S or R)-2-(3-(8-oxa-2-azaspiro[4.5]decan-2-yl)propoxy)-4-((1R,5S)-3,8-diazacyclo[3.2.1]octan-3-yl)-6-chloro-8-fluoroquinazolin-7-yl)naphthalen-2-ol formate]
13 | 84.3 | 434 | 270 | CN(C)C1CN(c2nc(N3CC4CCC(C3)N4)c3cc(Cl)c(-c4cc(O)cc5cccc(Cl)c45)c(F)c3n2)C1 (single isomer, unassigned) [Compound 65b, 4-((R or S)-4-((1R,5S)-3,8-diazabicyclo[3.2.1]octan-3-yl)-6-chloro-2-(3-(dimethylamino)azetidin-1-yl)-8-fluoroquinazolin-7-yl)-5-chloronaphthalen-2-ol]
14 | 19.5 | 53.7 | 2410 | CN(C)CC(C)(C)COc1nc(N2CC3CCC(C2)N3)c2cc(Cl)c(-c3cc(O)cc4ccccc34)c(F)c2n1 (single isomer, unassigned) [Compound 118, 4-((S or R)-4-((1R,5S)-3,8-diazabicyclo[3.2.1]octan-3-yl)-6-chloro-2-(3-(dimethylamino)-2,2-dimethylpropoxy)-8-fluoroquinazolin-7-yl)naphthalen-2-ol dihydrochloride]
15 | 19.3 | 18.7 | 85.4 | C[C@H]1C[C@@H](COc2nc(N3CC4CCC(C3)N4)c3cnc(-c4cc(O)cc5ccccc45)c(F)c3n2)N(C)C1 [Compound 133, 4-(4-((1R,5S)-3.8-diazabicyclo[3.2.1]octan-3-yl)-2-((2S,4S)-1,4-dimethylpyrrolidin-2-yl)methoxy)-8-fluoropyridinyl[4,3-d]pyrimidin-7-yl)naphthalen-2-ol trifluoroacetate]
16 | 30.8 | 55.2 | 196 | CN1CCC[C@H]1COc1nc(N2C[C@H]3C=C[C@@H](C2)N3)c2cnc(-c3cc(O)cc4ccccc34)c(F)c2n1 [Compound 159, 4-(4-((1R,5S)-3,8-diazabicyclo[3.2.1]oct-6-en-3-yl)-8-fluoro-2-(((S)-1-methylpyrrolidin-2-yl)methoxy)pyrido[4,3-d]pyrimidin-7-yl)naphthalen-2-ol diformate]
17 | 29.2 | 88.9 | 1510 | CN1C[C@@H]2C[C@@H]2[C@H]1COc1nc(N2CC3CCC(C2)N3)c2cc(Cl)c(-c3cc(O)cc4ccccc34)c(F)c2n1 (single isomer, unassigned) [Compound 183, 4-((R or S)-4-((1R,5S)-3,8-diazabicyclo[3.2.1]octan-3-yl)-6-chloro-8-fluoro-2-((1S,2S,5R)-3-methyl-3-azabicyclo[3.1.0]hexan-2-yl)methoxy)quinazolin-7-yl)naphthalen-2-ol diformate]

Row | Molecule | IC50 (KRAS-G12D and SOS1) [nM] | IC50 (KRAS_G12D and cRAF) [nM] | IC50 (KRAS_WT and SOS1) [nM]
18 | CN1CCC[C@H]1COc1nc(N2CC3CCC(C2)N3)c2cc(Cl)c(-c3cc(O)cc4ccccc34)c(F)c2n1 (single isomer, unassigned) [Compound 39a, (S or R)-4-(4-((1R,5S)-3,8-diazabicyclo[3.2.1]octan-3-yl)-6-chloro-8-fluoro-2-((S)-1-methylpyrrolidin-2-yl)methoxy)quinazolin-7-yl)naphthalen-2-ol] | 27.7 | 26.2 | 342
19 | ((3R or 3S, 7aR or 7aS)-7a-((4-((1R,5S)-3,8-diazabicyclo[3.2.1]octan-3-yl)-6-chloro-8-fluoro-7-(3-hydroxynaphthalen-1-yl)quinazolin-2-yl)oxy)methyl)hexahydro-1H-pyrrolidin-3-yl)dimethylcarbamate tristrifluoroacetate [Compound 232b] | 13.5 | 14.8 | 66.2
